This is an account of results in patent publication US8937183B2, “Detection of hydrogen peroxide” (Promega Corporation, priority 2011, dated 2015).

Each structure is given as a SMILES string.

The assay in a line: Generation of bioluminescence from luciferin borates upon treatment with hydrogen peroxide (luciferase light reaction). The format is biochemical. Particulars: for light signal increase upon addition of hydrogen peroxide (in words): all pH values 6.87 to 9.18. The method, then: In this example, luciferin borates were incubated with hydrogen peroxide, and luciferin generation was measured using a light reaction catalyzed by luciferase. An increase in light output (bioluminescence) as a result of treatment of the luciferin borates with hydrogen peroxide indicates generation of luciferin as a result of the reaction with hydrogen peroxide.
1 M phosphate solutions (either 6.8 g of KH2PO4 (Fisher) or 11.4 g of K2HPO4 (Sigma) were dissolved in Nanopure water to 1 M) were diluted 1:5 with Nanopure water to produce 200 mM phosphate solutions. 200 mM phosphate buffers at pH 6.87, 7.41, 7.73, 8.04, and 9.18 were prepared. 4 mg/ml solutions of PBI 3048, 4013, 4424 and 4425 (FIG. 1) in DMSO (Fluka 41641) were made from solid powder.
Into two 96-well white, solid bottom luminometer plates (Promega Z3291) (labeled “A” and “B”), 50 μl of 200 mM phosphate buffer pH 6.87 was added to wells A1-H2; 50 μl of 200 mM phosphate pH 7.41 was added to wells A3-H4; 50 μl of 200 mM phosphate buffer pH 7.73 was added to wells A5-H6; 50 μl of 200 mM phosphate buffer pH 8.04 was added to wells A7-H8; and 50 μl of 200 mM phosphate buffer pH 9.18 was added to wells A9-H10.
50 μl of 4 mg/ml PBI 4013 in DMSO was diluted to 1.25 ml with Nanopure water, and 25 μl added to wells A1-D10 of plate A. 50 μl of 4 mg/ml PBI 4424 was diluted to 1.25 ml with Nanopure water, and 25 μl added to E1-H10 of plate A. 50 μl of 4 mg/ml PBI 3048 was diluted to 1.25 ml with Nanopure water, and 25 μl added to A1-D10 of plate B. 50 μl of 4 mg/ml PBI 4425 was diluted to 1.25 ml with Nanopure water, and 25 μl added to E1-H10 of plate B. 25 μl of Nanopure water was added to rows A and E of both plates. 17 μl of Nanopure water was added to rows B and F of both plates; and 8 μl of Nanopure water was added to rows C and G of both plates
A hydrogen peroxide solution (30% hydrogen peroxide, Sigma H1009-5 ml) was diluted to 60 μM hydrogen peroxide with Nanopure water, and 25 μl of the 60 μM hydrogen peroxide was added to rows D and H of both plates; 17 μl of […] hydrogen peroxide was added to rows C and G of both plates; and 8 μl of […] hydrogen peroxide was added to rows B and F of both plates. Both plates A and B were then gently mixed for 70 minutes.
A bottle of Reconstitution Buffer with Esterase (Promega V144B) was thawed and used to reconstitute a Luciferin Detection Reagent (Promega V859B) to create a reconstituted Luciferin Detection Reagent (“LDR”). 15 ml of 1 M HEPES buffer, pH 7.5 was mixed with 25 ml of the LDR, and 80 μl added to wells A1-H10 of two new luminometer plates (“R1” and “R2”).
Following incubation, 20 μl of the contents of wells A1-H10 of plate A was transferred to the same wells in plate R1, and 20 μl of A1-H10 of plate B was transferred to the same wells in plate R2. Plate R1 and R2 were then incubated at room temperature for 15 minutes, and bioluminescence was measured with a GloMax® luminometer (Promega Corp).
Bioluminescence from duplicate wells was averaged, and the average relative light units (RLUs) from samples containing peroxide were compared to those from the samples not containing peroxide incubated at the same pH (Table 1).

Where [1] appears, read: H2O2 0 μM, phosphate buffer pH 6.87, 70 minutes.
[2] abbreviates: H2O2 0 μM, phosphate buffer pH 7.41, 70 minutes.
[3] abbreviates: H2O2 0 μM, phosphate buffer pH 7.73, 70 minutes.
[4] abbreviates: H2O2 0 μM, phosphate buffer pH 8.04, 70 minutes.
[5] abbreviates: H2O2 0 μM, phosphate buffer pH 9.18, 70 minutes.
Setting [6] is: H2O2 5 μM, phosphate buffer pH 6.87, 70 minutes.
[7] abbreviates: H2O2 5 μM, phosphate buffer pH 7.41, 70 minutes.
Where [8] appears, read: H2O2 5 μM, phosphate buffer pH 7.73, 70 minutes.
Setting [9] is: H2O2 5 μM, phosphate buffer pH 8.04, 70 minutes.
The mark [10] stands for this setting: H2O2 5 μM, phosphate buffer pH 9.18, 70 minutes.
[11] abbreviates: H2O2 10 μM, phosphate buffer pH 6.87, 70 minutes.
The mark [12] stands for this setting: H2O2 10 μM, phosphate buffer pH 7.41, 70 minutes.
[13] abbreviates: H2O2 10 μM, phosphate buffer pH 7.73, 70 minutes.
Setting [14] is: H2O2 10 μM, phosphate buffer pH 8.04, 70 minutes.
Where [15] appears, read: H2O2 10 μM, phosphate buffer pH 9.18, 70 minutes.
Where [16] appears, read: H2O2 15 μM, phosphate buffer pH 6.87, 70 minutes.
Setting [17] is: H2O2 15 μM, phosphate buffer pH 7.41, 70 minutes.
Setting [18] is: H2O2 15 μM, phosphate buffer pH 7.73, 70 minutes.
[19] abbreviates: H2O2 15 μM, phosphate buffer pH 8.04, 70 minutes.
The mark [20] stands for this setting: H2O2 15 μM, phosphate buffer pH 9.18, 70 minutes.

For `O=C(O)C1CSC(c2nc3ccc(OCc4ccc(B(O)O)c5ccccc45)cc3s2)=N1` (stereo not drawn) [PBI 4013], the “light signal increase upon addition of hydrogen peroxide (in words)” value (shortened to “light signal increase upon addition”) was “increased strongly”. The “average relative light units (bioluminescence)” value (shortened to “average relative light units”) under setting [1] was 421,702 RLU. Also, the “average relative light units” value under setting [2] is recorded as 469,602 RLU. Under setting [3], the “average relative light units” value is recorded as 573,023 RLU. The “average relative light units” value under setting [4] is given as 585,008 RLU. The “average relative light units” value under setting [5] is 700,831 RLU. For the same compound, the “average relative light units” value under setting [6] is 580,978 RLU. Further, the “average relative light units” value under setting [7] is on record as 760,900 RLU. For the same compound, the “average relative light units” value under setting [8] is reported as 1,089,717 RLU. Further, under setting [9], the “average relative light units” value was 1,534,619 RLU. Besides, under setting [10], the “average relative light units” value was 3,678,815 RLU. The “average relative light units” value under setting [11] is listed as 680,475 RLU. Besides, the “average relative light units” value under setting [12] was 1,020,315 RLU. Under setting [13], the “average relative light units” value is reported as 1,634,356 RLU. Under setting [14], the “average relative light units” value is listed as 2,485,677 RLU. Moreover, the “average relative light units” value under setting [15] is 5,433,577 RLU. For the same compound, under setting [16], the “average relative light units” value is given as 793,789 RLU. Besides, the “average relative light units” value under setting [17] is recorded as 1,282,281 RLU. Also, the “average relative light units” value under setting [18] was 2,209,227 RLU. In addition, the “average relative light units” value under setting [19] is 3,373,538 RLU. The “average relative light units” value under setting [20] is listed as 7,062,631 RLU.

As for `O=C(O)C1CSC(c2nc3ccc(OCc4c(B(O)O)ccc5ccccc45)cc3s2)=N1` (stereo not drawn) [PBI 4424], the “light signal increase upon addition” value is “much smaller”. Under setting [1], the “average relative light units” value is 17,522 RLU. Moreover, the “average relative light units” value under setting [2] is given as 16,181 RLU. Moreover, under setting [3], the “average relative light units” value is recorded as 17,087 RLU. Also, the “average relative light units” value under setting [4] is 18,602 RLU. Moreover, under setting [5], the “average relative light units” value is 17,794 RLU. In addition, the “average relative light units” value under setting [6] is 18,952 RLU. Under setting [7], the “average relative light units” value is reported as 17,583 RLU. In addition, the “average relative light units” value under setting [8] is listed as 18,681 RLU. Further, under setting [9], the “average relative light units” value is listed as 20,935 RLU. Further, the “average relative light units” value under setting [10] was 22,309 RLU. The “average relative light units” value under setting [11] was 19,891 RLU. Moreover, the “average relative light units” value under setting [12] was 17,508 RLU. The “average relative light units” value under setting [13] is given as 19,298 RLU. Under setting [14], the “average relative light units” value is recorded as 20,554 RLU. The “average relative light units” value under setting [15] is 20,333 RLU. Further, the “average relative light units” value under setting [16] is 20,263 RLU. In addition, under setting [17], the “average relative light units” value is listed as 19,332 RLU. Further, the “average relative light units” value under setting [18] was 25,729 RLU. Also, the “average relative light units” value under setting [19] is reported as 21,486 RLU. The “average relative light units” value under setting [20] is 20,453 RLU.

Turning to `CC(Oc1ccc2nc(C3=NC(C(=O)O)CS3)sc2c1)c1ccc(B(O)O)cc1` (stereo not drawn) [PBI 4425], the “light signal increase upon addition” value is reported as “much smaller”. Under setting [1], the “average relative light units” value is reported as 10,464 RLU. The “average relative light units” value under setting [2] is listed as 10,266 RLU. Moreover, the “average relative light units” value under setting [3] is given as 9,302 RLU. In addition, the “average relative light units” value under setting [4] is recorded as 10,312 RLU. For the same compound, under setting [5], the “average relative light units” value is reported as 9,428 RLU. The “average relative light units” value under setting [6] is given as 13,296 RLU. Further, the “average relative light units” value under setting [7] is on record as 14,549 RLU. Under setting [8], the “average relative light units” value is recorded as 13,739 RLU. Further, the “average relative light units” value under setting [9] was 15,130 RLU. Further, the “average relative light units” value under setting [10] is on record as 19,728 RLU. Also, under setting [11], the “average relative light units” value is given as 14,491 RLU. The “average relative light units” value under setting [12] is given as 14,768 RLU. The “average relative light units” value under setting [13] is 17,086 RLU. Further, under setting [14], the “average relative light units” value was 19,258 RLU. Besides, under setting [15], the “average relative light units” value was 26,859 RLU. Besides, the “average relative light units” value under setting [16] was 14,105 RLU. Further, the “average relative light units” value under setting [17] is 14,725 RLU. Besides, the “average relative light units” value under setting [18] is on record as 15,789 RLU. Moreover, the “average relative light units” value under setting [19] was 18,905 RLU. Also, the “average relative light units” value under setting [20] is 24,236 RLU.
